Measurements published in the NIST ThermoML archive (doi:10.1016/j.jct.2006.02.005).
Several values for one entry are separate records, joined by “and”; a condition that tells them apart may be missing. Equal values may be shown once. ± gives the expanded uncertainty stated by the source.

Tests used:
[1] = for Normal melting temperature: Crystal 1; for Triple point temperature: Crystal 2
[2] = Molar enthalpy of transition or fusion
[3] = molar heat capacity at constant pressure; details: 101.33 kPa

NC(CO)(CO)CO [2-amino-2-(hydroxymethyl)-1,3-propanediol]
[1]
Details | Normal melting temperature [°C] | Triple point temperature [K]
– | 171.42 ± 1 | 409.2 ± 1

[2]
Details | Molar enthalpy of transition or fusion [kJ/mol]
Crystal 1 | 3.1 ± 0.35
Crystal 2 | 33.5 ± 1.6

[3]
Details | molar heat capacity at constant pressure
193.15 K, Crystal 2 | 122.47 ± 4.9 J/K/mol and 125.13 ± 5 J/K/mol and 118.14 ± 4.7 J/K/mol
198.15 K, Crystal 2 | 123.8 ± 5 J/K/mol and 126.58 ± 5.1 J/K/mol and 119.34 ± 4.8 J/K/mol
203.15 K, Crystal 2 | 124.41 ± 5 J/K/mol and 128.03 ± 5.1 J/K/mol and 119.97 ± 4.8 J/K/mol
208.15 K, Crystal 2 | 130.34 ± 5.2 J/K/mol and 121.62 ± 4.9 J/K/mol and 126.22 ± 5 J/K/mol
213.15 K, Crystal 2 | 128.53 ± 5.1 J/K/mol and 132.76 ± 5.3 J/K/mol and 124.17 ± 5 J/K/mol
218.15 K, Crystal 2 | 130.83 ± 5.2 J/K/mol and 135.3 ± 5.4 J/K/mol and 125.62 ± 5 J/K/mol
223.15 K, Crystal 2 | 133.13 ± 5.3 J/K/mol and 137.12 ± 5.5 J/K/mol and 127.31 ± 5.1 J/K/mol
228.15 K, Crystal 2 | 135.31 ± 5.4 J/K/mol and 138.33 ± 5.5 J/K/mol and 129.5 ± 5.2 J/K/mol
233.15 K, Crystal 2 | 131.07 ± 5.2 J/K/mol and 137.49 ± 5.5 J/K/mol and 140.87 ± 5.6 J/K/mol
238.15 K, Crystal 2 | 133.61 ± 5.3 J/K/mol and 139.67 ± 5.6 J/K/mol and 143.78 ± 5.8 J/K/mol
243.15 K, Crystal 2 | 139.07 ± 5.6 J/K/mol and 142.09 ± 5.7 J/K/mol and 145.84 ± 5.8 J/K/mol
248.15 K, Crystal 2 | 143.18 ± 5.7 J/K/mol and 144.27 ± 5.8 J/K/mol and 148.75 ± 6 J/K/mol
253.15 K, Crystal 2 | 144.76 ± 5.8 J/K/mol and 146.7 ± 5.9 J/K/mol and 151.05 ± 6 J/K/mol
258.15 K, Crystal 2 | 146.82 ± 5.9 J/K/mol and 149.24 ± 6 J/K/mol and 153.23 ± 6.1 J/K/mol
263.15 K, Crystal 2 | 150.82 ± 6 J/K/mol and 152.03 ± 6.1 J/K/mol and 155.65 ± 6.2 J/K/mol
268.15 K, Crystal 2 | 154.81 ± 6.2 J/K/mol and 154.69 ± 6.2 J/K/mol and 158.07 ± 6.3 J/K/mol
273.15 K, Crystal 2 | 156.87 ± 6.3 J/K/mol and 156.99 ± 6.3 J/K/mol and 160.74 ± 6.4 J/K/mol
278.15 K, Crystal 2 | 157.96 ± 6.3 J/K/mol and 159.66 ± 6.4 J/K/mol and 163.65 ± 6.5 J/K/mol
283.15 K, Crystal 2 | 160.99 ± 6.4 J/K/mol and 162.69 ± 6.5 J/K/mol and 166.8 ± 6.7 J/K/mol
288.15 K, Crystal 2 | 163.78 ± 6.5 J/K/mol and 165.84 ± 6.6 J/K/mol and 169.46 ± 6.8 J/K/mol
293.15 K, Crystal 2 | 166.32 ± 6.7 J/K/mol and 169.11 ± 6.8 J/K/mol and 171.4 ± 6.9 J/K/mol
298.15 K, Crystal 2 | 169.83 ± 6.8 J/K/mol and 171.89 ± 6.9 J/K/mol and 174.79 ± 7 J/K/mol
303.15 K, Crystal 2 | 172.14 ± 6.9 J/K/mol and 174.44 ± 7 J/K/mol and 179.03 ± 7.2 J/K/mol
308.15 K, Crystal 2 | 173.95 ± 7 J/K/mol and 177.34 ± 7.1 J/K/mol and 182.3 ± 7.3 J/K/mol
313.15 K, Crystal 2 | 175.89 ± 7 J/K/mol and 180.01 ± 7.2 J/K/mol and 185.33 ± 7.4 J/K/mol
318.15 K, Crystal 2 | 180.37 ± 7.2 J/K/mol and 182.55 ± 7.3 J/K/mol and 188.36 ± 7.5 J/K/mol
323.15 K, Crystal 2 | 185.82 ± 7.4 J/K/mol and 185.1 ± 7.4 J/K/mol and 191.63 ± 7.7 J/K/mol
328.15 K, Crystal 2 | 189.46 ± 7.6 J/K/mol and 187.4 ± 7.5 J/K/mol and 194.41 ± 7.8 J/K/mol
333.15 K, Crystal 2 | 192 ± 7.7 J/K/mol and 189.82 ± 7.6 J/K/mol and 197.08 ± 7.9 J/K/mol
338.15 K, Crystal 2 | 195.52 ± 7.8 J/K/mol and 192.24 ± 7.7 J/K/mol and 200.35 ± 8 J/K/mol
343.15 K, Crystal 2 | 198.06 ± 7.9 J/K/mol and 194.3 ± 7.8 J/K/mol and 203.14 ± 8.1 J/K/mol
348.15 K, Crystal 2 | 200.6 ± 8 J/K/mol and 196.97 ± 7.9 J/K/mol and 206.04 ± 8.2 J/K/mol
353.15 K, Crystal 2 | 203.15 ± 8.1 J/K/mol and 199.15 ± 8 J/K/mol and 209.19 ± 8.4 J/K/mol
358.15 K, Crystal 2 | 201.94 ± 8.1 J/K/mol and 211.86 ± 8.5 J/K/mol and 205.93 ± 8.2 J/K/mol
363.15 K, Crystal 2 | 209.93 ± 8.4 J/K/mol and 203.99 ± 8.2 J/K/mol and 214.4 ± 8.6 J/K/mol
368.15 K, Crystal 2 | 212.96 ± 8.5 J/K/mol and 206.78 ± 8.3 J/K/mol and 217.31 ± 8.7 J/K/mol
373.15 K, Crystal 2 | 215.26 ± 8.6 J/K/mol and 209.45 ± 8.4 J/K/mol and 219.61 ± 8.8 J/K/mol
378.15 K, Crystal 2 | 218.17 ± 8.7 J/K/mol and 212.35 ± 8.5 J/K/mol and 222.64 ± 8.9 J/K/mol
383.15 K, Crystal 2 | 221.8 ± 8.9 J/K/mol and 214.9 ± 8.6 J/K/mol and 226.15 ± 9.1 J/K/mol
388.15 K, Crystal 2 | 227.37 ± 9.1 J/K/mol and 217.93 ± 8.7 J/K/mol and 229.78 ± 9.2 J/K/mol
393.15 K, Crystal 2 | 229.31 ± 9.2 J/K/mol and 221.32 ± 8.8 J/K/mol and 233.54 ± 9.3 J/K/mol
398.15 K, Crystal 2 | 234.28 ± 9.4 J/K/mol and 225.68 ± 9 J/K/mol and 237.9 ± 9.5 J/K/mol
423.15 K, Crystal 1 | 367.05 ± 15 J/K/mol and 386.4 ± 15 J/K/mol and 376.37 ± 15 J/K/mol
428.15 K, Crystal 1 | 368.14 ± 15 J/K/mol and 390.4 ± 16 J/K/mol and 378.19 ± 15 J/K/mol
433.15 K, Crystal 1 | 369.95 ± 15 J/K/mol and 393.79 ± 16 J/K/mol and 383.04 ± 15 J/K/mol
438.15 K, Crystal 1 | 396.7 ± 16 J/K/mol and 389.58 ± 16 J/K/mol and 371.65 ± 15 J/K/mol
453.15 K, Liquid | 395.39 ± 16 J/K/mol
458.15 K, Liquid | 396.6 ± 16 J/K/mol
463.15 K, Liquid | 398.06 ± 16 J/K/mol
468.15 K, Liquid | 400.36 ± 16 J/K/mol
473.15 K, Liquid | 400.72 ± 16 J/K/mol

CC(N)(CO)CO [2-amino-2-methyl-1,3-propanediol]
[1]
Details | Normal melting temperature [°C] | Triple point temperature [K]
– | 110.93 ± 1.2 | 355.66 ± 0.9

[2]
Details | Molar enthalpy of transition or fusion [kJ/mol]
Crystal 1 | 2.75 ± 0.26
Crystal 2 | 23.5 ± 1.1

[3]
Details | molar heat capacity at constant pressure
193.15 K, Crystal 3 | 118.91 ± 4.8 J/K/mol and 107.45 ± 4.3 J/K/mol and 121.86 ± 4.9 J/K/mol
198.15 K, Crystal 3 | 121.86 ± 4.9 J/K/mol and 119.23 ± 4.8 J/K/mol and 108.93 ± 4.4 J/K/mol
203.15 K, Crystal 3 | 123.22 ± 4.9 J/K/mol and 119.86 ± 4.8 J/K/mol and 110.29 ± 4.4 J/K/mol
208.15 K, Crystal 3 | 119.54 ± 4.8 J/K/mol and 111.13 ± 4.5 J/K/mol and 124.91 ± 5 J/K/mol
213.15 K, Crystal 3 | 126.27 ± 5 J/K/mol and 119.96 ± 4.8 J/K/mol and 112.18 ± 4.5 J/K/mol
218.15 K, Crystal 3 | 127.85 ± 5.1 J/K/mol and 121.12 ± 4.8 J/K/mol and 113.66 ± 4.5 J/K/mol
223.15 K, Crystal 3 | 129.11 ± 5.2 J/K/mol and 122.28 ± 4.9 J/K/mol and 115.97 ± 4.6 J/K/mol
228.15 K, Crystal 3 | 130.37 ± 5.2 J/K/mol and 123.22 ± 4.9 J/K/mol and 118.39 ± 4.7 J/K/mol
233.15 K, Crystal 3 | 132.06 ± 5.3 J/K/mol and 124.17 ± 5 J/K/mol and 121.02 ± 4.8 J/K/mol
238.15 K, Crystal 3 | 133.84 ± 5.3 J/K/mol and 125.85 ± 5 J/K/mol and 124.17 ± 5 J/K/mol
243.15 K, Crystal 3 | 135 ± 5.4 J/K/mol and 129.32 ± 5.2 J/K/mol and 126.8 ± 5.1 J/K/mol
248.15 K, Crystal 3 | 136.37 ± 5.5 J/K/mol and 130.9 ± 5.2 J/K/mol and 128.8 ± 5.2 J/K/mol
253.15 K, Crystal 3 | 130.69 ± 5.2 J/K/mol and 135.32 ± 5.4 J/K/mol and 132.16 ± 5.3 J/K/mol
258.15 K, Crystal 3 | 131.32 ± 5.2 J/K/mol and 134.05 ± 5.4 J/K/mol and 134.16 ± 5.4 J/K/mol
263.15 K, Crystal 3 | 133 ± 5.3 J/K/mol and 134.05 ± 5.4 J/K/mol and 136.37 ± 5.5 J/K/mol
268.15 K, Crystal 3 | 134.16 ± 5.4 J/K/mol and 135.84 ± 5.4 J/K/mol and 137.52 ± 5.5 J/K/mol
273.15 K, Crystal 3 | 134.58 ± 5.4 J/K/mol and 137.42 ± 5.5 J/K/mol and 138.78 ± 5.5 J/K/mol
278.15 K, Crystal 3 | 136.79 ± 5.5 J/K/mol and 139.1 ± 5.6 J/K/mol and 140.47 ± 5.6 J/K/mol
283.15 K, Crystal 3 | 139.63 ± 5.6 J/K/mol and 140.68 ± 5.6 J/K/mol and 142.67 ± 5.7 J/K/mol
288.15 K, Crystal 3 | 142.04 ± 5.7 J/K/mol and 143.83 ± 5.8 J/K/mol
293.15 K, Crystal 3 | 143.62 ± 5.7 J/K/mol and 144.46 ± 5.8 J/K/mol and 145.83 ± 5.8 J/K/mol
298.15 K, Crystal 3 | 145.62 ± 5.8 J/K/mol and 146.46 ± 5.9 J/K/mol and 148.25 ± 5.9 J/K/mol
303.15 K, Crystal 3 | 147.51 ± 5.9 J/K/mol and 148.46 ± 5.9 J/K/mol and 151.61 ± 6.1 J/K/mol
308.15 K, Crystal 3 | 148.88 ± 6 J/K/mol and 150.03 ± 6 J/K/mol and 153.82 ± 6.2 J/K/mol
313.15 K, Crystal 3 | 150.67 ± 6 J/K/mol and 151.82 ± 6.1 J/K/mol and 154.56 ± 6.2 J/K/mol
318.15 K, Crystal 3 | 151.51 ± 6.1 J/K/mol and 154.35 ± 6.2 J/K/mol and 155.5 ± 6.2 J/K/mol
323.15 K, Crystal 3 | 152.66 ± 6.1 J/K/mol and 156.87 ± 6.3 J/K/mol and 158.97 ± 6.4 J/K/mol
328.15 K, Crystal 3 | 154.98 ± 6.2 J/K/mol and 159.5 ± 6.4 J/K/mol and 164.54 ± 6.6 J/K/mol
333.15 K, Crystal 3 | 157.6 ± 6.3 J/K/mol and 162.34 ± 6.5 J/K/mol and 168.33 ± 6.7 J/K/mol
338.15 K, Crystal 3 | 160.02 ± 6.4 J/K/mol and 165.49 ± 6.6 J/K/mol and 171.9 ± 6.9 J/K/mol
343.15 K, Crystal 3 | 163.07 ± 6.5 J/K/mol and 168.33 ± 6.7 J/K/mol and 176.74 ± 7.1 J/K/mol
348.15 K, Crystal 3 | 186.94 ± 7.5 J/K/mol and 175.58 ± 7 J/K/mol and 198.92 ± 8 J/K/mol
368.15 K, Crystal 1 | 297.97 ± 12 J/K/mol and 303.43 ± 12 J/K/mol and 287.35 ± 11 J/K/mol
373.15 K, Crystal 1 | 299.96 ± 12 J/K/mol and 302.7 ± 12 J/K/mol and 289.98 ± 12 J/K/mol
378.15 K, Crystal 1 | 306.17 ± 12 J/K/mol and 309.95 ± 12 J/K/mol and 295.76 ± 12 J/K/mol
393.15 K, Liquid | 322.67 ± 13 J/K/mol and 320.57 ± 13 J/K/mol and 328.56 ± 13 J/K/mol
398.15 K, Liquid | 327.41 ± 13 J/K/mol and 323.41 ± 13 J/K/mol and 339.71 ± 14 J/K/mol
403.15 K, Liquid | 331.72 ± 13 J/K/mol and 325.62 ± 13 J/K/mol and 352.43 ± 14 J/K/mol
408.15 K, Liquid | 327.83 ± 13 J/K/mol and 335.19 ± 13 J/K/mol
413.15 K, Liquid | 330.03 ± 13 J/K/mol
